The record followed here is patent US20250066341A1 (CHIESI FARMACEUTICI S.P.A., priority 2021, published 2025).

The target in the experiment is T1, human recombinant LPA1 expressed in CHO cells (Homo sapiens, UniProt Q92633).
T1 construct: expressed in transfected cells; host or cells: CHO cells (CHO-hLPA1 cell line)
Nature of the experiment: FLIPR calcium mobilization assay, LPA1 antagonism in CHO-hLPA1 cells. Conditions: inhibition of LPA EC80 Ca2+ response, 30 min pre-incubation, expressed as range of activity. Type of experiment: cell-based. The gist of the method: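 CHO-hLPA1 cells loaded with 5 μM Cal-520 AM plus 2.5 mM probenecid, 30 min at 37 °C, then pre-incubated 30 min at 37 °C with antagonist (11-point CRC, 0.5% DMSO final) before LPA at EC80. Baseline-subtracted peak fluorescence normalised to % inhibition; pIC50 from four-parameter logistic fit.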
(In general: A change in cytosolic calcium serves as a functional read-out for many receptors and channels.)

One may read the IC50 as the midpoint of a concentration-inhibition curve.

A value given as a limit tells only on which side of the number the result lay.

T1 sequence (Q92633 whole entry): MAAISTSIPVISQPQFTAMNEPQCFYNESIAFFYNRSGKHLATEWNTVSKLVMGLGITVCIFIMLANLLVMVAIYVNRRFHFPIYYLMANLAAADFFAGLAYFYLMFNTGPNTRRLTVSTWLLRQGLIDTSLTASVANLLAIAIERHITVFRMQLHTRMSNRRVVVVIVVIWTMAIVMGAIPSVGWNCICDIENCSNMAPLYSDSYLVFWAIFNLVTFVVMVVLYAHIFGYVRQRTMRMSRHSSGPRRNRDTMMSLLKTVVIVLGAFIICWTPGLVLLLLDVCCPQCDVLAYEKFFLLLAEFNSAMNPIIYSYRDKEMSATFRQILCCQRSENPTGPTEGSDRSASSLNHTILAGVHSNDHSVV

With `Cc1noc(-c2ccc(OC[C@H]3CCCC[C@@H]3C(=O)O)cn2)c1NC(=O)O[C@H](C)c1ccccc1Cl` [Compound 78, (1S,2S)-2-(((6-(4-((((R)-1-(2-chlorophenyl)ethoxy)carbonyl)amino)-3-methylisoxazol-5-yl)pyridin-3-yl)oxy)methyl)cyclohexane-1-carboxylic acid], the IC50 is < 50 nM.

Turning to `Cc1noc(-c2ccc(OCC3CCCCC3C(=O)O)cn2)c1NC(=O)O[C@H](C)c1ccccc1Cl` (stereo partly drawn) [Compound 79, 2-(((6-(4-((((R)-1-(2-chlorophenyl)ethoxy)carbonyl)amino)-3-methylisoxazol-5-yl)pyridin-3-yl)oxy)methyl)cyclohexane-1-carboxylic acid], the IC50 is < 50 nM.

As to `Cc1nc(-c2onc(C)c2NC(=O)O[C@H](C)c2ccccc2Cl)ccc1OC[C@H]1CCCC[C@@H]1C(=O)O` [Compound 80, (1S,2S)-2-(((6-(4-((((R)-1-(2-chlorophenyl)ethoxy)carbonyl)amino)-3-methylisoxazol-5-yl)-2-methylpyridin-3-yl)oxy)methyl)cyclohexane-1-carboxylic acid], the IC50 is < 50 nM.
